In ChEMBL document CHEMBL4371004, “A-C Estrogens as Potent and Selective Estrogen Receptor-Beta Agonists (SERBAs) to Enhance Memory Consolidation under Low-Estrogen Conditions” (J Med Chem, 2018):
Calls of active or inactive are those of the source. The rule behind the calls is not given here.

What was measured:
[1] = target: T1, Mineralocorticoid receptor (Homo sapiens) (UniProt P08235); test: Agonist activity at GAL4 DNA binding domain fused mineralocorticoid receptor ligand binding domain (unknown origin) at 0.25 to 25 uM by FRET-based assay
T1 sequence (whole entry): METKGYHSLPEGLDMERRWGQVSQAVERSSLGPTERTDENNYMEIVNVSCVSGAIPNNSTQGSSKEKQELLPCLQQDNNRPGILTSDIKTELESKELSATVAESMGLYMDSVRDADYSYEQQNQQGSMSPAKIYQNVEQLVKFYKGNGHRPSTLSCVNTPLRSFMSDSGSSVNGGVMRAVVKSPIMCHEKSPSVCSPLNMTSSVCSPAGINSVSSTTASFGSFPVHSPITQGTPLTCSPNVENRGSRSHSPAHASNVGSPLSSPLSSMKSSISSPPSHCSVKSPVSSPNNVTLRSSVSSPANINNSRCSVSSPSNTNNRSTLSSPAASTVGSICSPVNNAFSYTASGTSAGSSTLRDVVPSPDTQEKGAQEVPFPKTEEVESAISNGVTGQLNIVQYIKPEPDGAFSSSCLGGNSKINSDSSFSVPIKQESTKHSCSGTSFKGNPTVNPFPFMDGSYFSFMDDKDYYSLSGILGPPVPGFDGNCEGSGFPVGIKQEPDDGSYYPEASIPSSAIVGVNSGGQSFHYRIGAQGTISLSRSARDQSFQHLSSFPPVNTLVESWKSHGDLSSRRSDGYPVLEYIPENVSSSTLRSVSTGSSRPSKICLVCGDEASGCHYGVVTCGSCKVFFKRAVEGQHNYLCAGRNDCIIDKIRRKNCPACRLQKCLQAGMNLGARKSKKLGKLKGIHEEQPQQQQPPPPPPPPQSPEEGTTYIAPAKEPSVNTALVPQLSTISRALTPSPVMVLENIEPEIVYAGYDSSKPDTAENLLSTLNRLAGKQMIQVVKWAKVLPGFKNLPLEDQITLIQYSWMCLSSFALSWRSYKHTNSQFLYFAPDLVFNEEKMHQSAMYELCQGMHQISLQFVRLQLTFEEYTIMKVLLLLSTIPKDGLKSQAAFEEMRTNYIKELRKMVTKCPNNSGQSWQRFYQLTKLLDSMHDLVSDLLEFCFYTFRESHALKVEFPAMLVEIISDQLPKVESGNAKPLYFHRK

Cytochrome P450 2D6 = Cytochrome P450 2D6 (Homo sapiens, UniProt P10635); test: Inhibition of human recombinant CYP2D6 up to 100 uM preincubated for 10 mins followed by NADPH addition and measured after 10 to 30 mins by P450-Glo luminescence assay; type: ADME; conditions: recombinant enzyme
Mus musculus [2] = test: Memory enhancement effect in C57BL/6 mouse assessed as time spent with moved object at 10 pg administered as dorsal hippocampal infusion by novel object recognition test; type: functional
Mus musculus [3] = test: Memory enhancement effect in C57BL/6 mouse assessed as time spent with moved object at 100 pg administered as dorsal hippocampal infusion by novel object recognition test; type: functional
Mus musculus [4] = test: Memory enhancement effect in C57BL/6 mouse assessed as time spent with moved object at 1 ng administered as dorsal hippocampal infusion by novel object recognition test; type: functional
Mus musculus [5] = test: Memory enhancement effect in C57BL/6 mouse assessed as time spent with novel object at 10 pg administered as dorsal hippocampal infusion by novel object recognition test; type: functional
Mus musculus [6] = test: Memory enhancement effect in C57BL/6 mouse assessed as time spent with moved object at 0.5 mg/kg, ip by novel object recognition test; type: functional
Mus musculus [7] = test: Memory enhancement effect in C57BL/6 mouse assessed as time spent with moved object at 5 mg/kg, ip by novel object recognition test; type: functional
Mus musculus [8] = test: Memory enhancement effect in C57BL/6 mouse assessed as time spent with novel object at 5 mg/kg, ip by novel object recognition test; type: functional
Mus musculus [9] = test: Memory enhancement effect in C57BL/6 mouse assessed as time spent with novel object at 0.5 mg/kg, po administered via gavage by novel object recognition test; type: functional
Estrogen receptor [10] = target: T2, Estrogen receptor (Homo sapiens, UniProt P03372)
T2 sequence (P03372 whole entry): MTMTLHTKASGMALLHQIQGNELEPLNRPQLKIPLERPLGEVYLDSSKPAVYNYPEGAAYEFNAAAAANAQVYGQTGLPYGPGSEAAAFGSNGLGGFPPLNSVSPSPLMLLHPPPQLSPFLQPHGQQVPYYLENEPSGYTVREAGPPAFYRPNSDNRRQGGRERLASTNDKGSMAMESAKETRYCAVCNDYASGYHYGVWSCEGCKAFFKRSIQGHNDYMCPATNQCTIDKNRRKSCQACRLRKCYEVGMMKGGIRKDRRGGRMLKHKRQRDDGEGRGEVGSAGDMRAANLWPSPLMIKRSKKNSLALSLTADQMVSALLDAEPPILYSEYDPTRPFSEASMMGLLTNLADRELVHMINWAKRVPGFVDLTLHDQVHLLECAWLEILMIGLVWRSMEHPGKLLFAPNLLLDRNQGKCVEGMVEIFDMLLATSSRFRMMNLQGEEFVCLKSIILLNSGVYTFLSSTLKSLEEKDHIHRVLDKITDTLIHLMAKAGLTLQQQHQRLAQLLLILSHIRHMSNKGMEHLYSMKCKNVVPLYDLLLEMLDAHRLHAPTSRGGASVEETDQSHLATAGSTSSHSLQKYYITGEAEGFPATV

Estrogen receptor [11] = target: T2, Estrogen receptor; remark: listed apart in the source
Description: Agonist activity at estrogen receptor alpha (unknown origin) after 22 hrs by cell-based luciferase reporter gene assay

Estrogen receptor [12] = target: T2, Estrogen receptor; remark: listed apart in the source
Cytochrome P450 2C9 = Cytochrome P450 2C9 (Homo sapiens, UniProt P11712)
Description: Inhibition of human recombinant CYP2C9 preincubated for 10 mins followed by NADPH addition and measured after 10 to 30 mins by P450-Glo luminescence assay

Cytochrome P450 3A4 = Cytochrome P450 3A4 (Homo sapiens, UniProt P08684)
Description: Inhibition of human recombinant CYP3A4 preincubated for 10 mins followed by NADPH addition and measured after 10 to 30 mins by P450-Glo luminescence assay

Estrogen receptor [13] = target: T2, Estrogen receptor; test: cell-based
Description: Agonist activity at GAL4 DNA binding domain fused full-length chimeric estrogen receptor alpha (unknown origin) by FRET-based assay

Chain of Cytochrome P450 3A4 (P08684 whole entry): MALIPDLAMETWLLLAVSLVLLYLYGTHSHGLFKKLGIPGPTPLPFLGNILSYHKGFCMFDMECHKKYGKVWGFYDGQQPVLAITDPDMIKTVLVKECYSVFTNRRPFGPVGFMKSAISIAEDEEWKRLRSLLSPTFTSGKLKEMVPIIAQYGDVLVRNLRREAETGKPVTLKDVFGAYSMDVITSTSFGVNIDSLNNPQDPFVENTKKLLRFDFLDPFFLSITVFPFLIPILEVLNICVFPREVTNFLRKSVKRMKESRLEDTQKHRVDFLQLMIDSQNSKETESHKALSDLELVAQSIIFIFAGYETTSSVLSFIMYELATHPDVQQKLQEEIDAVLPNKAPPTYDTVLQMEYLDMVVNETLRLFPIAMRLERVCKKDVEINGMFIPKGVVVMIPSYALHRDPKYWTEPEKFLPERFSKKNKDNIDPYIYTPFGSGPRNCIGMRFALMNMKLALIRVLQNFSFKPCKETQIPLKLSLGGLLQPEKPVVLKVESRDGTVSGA
Chain of Cytochrome P450 2D6 (P10635 whole entry, the tested form may be a part): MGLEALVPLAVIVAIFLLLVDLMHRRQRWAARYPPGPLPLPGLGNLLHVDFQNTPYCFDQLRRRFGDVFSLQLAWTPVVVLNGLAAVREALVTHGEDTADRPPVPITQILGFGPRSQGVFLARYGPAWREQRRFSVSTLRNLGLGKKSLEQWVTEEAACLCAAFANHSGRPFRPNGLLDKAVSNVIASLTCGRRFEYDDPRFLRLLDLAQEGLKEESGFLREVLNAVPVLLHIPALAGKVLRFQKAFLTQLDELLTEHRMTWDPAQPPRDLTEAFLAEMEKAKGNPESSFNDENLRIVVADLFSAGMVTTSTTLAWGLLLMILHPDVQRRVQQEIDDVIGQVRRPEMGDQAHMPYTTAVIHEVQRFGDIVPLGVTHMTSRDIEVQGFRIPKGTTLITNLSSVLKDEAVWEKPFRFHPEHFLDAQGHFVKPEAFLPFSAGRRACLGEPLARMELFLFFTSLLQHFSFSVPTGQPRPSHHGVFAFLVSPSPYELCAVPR
Chain of Cytochrome P450 2C9 (P11712 whole entry): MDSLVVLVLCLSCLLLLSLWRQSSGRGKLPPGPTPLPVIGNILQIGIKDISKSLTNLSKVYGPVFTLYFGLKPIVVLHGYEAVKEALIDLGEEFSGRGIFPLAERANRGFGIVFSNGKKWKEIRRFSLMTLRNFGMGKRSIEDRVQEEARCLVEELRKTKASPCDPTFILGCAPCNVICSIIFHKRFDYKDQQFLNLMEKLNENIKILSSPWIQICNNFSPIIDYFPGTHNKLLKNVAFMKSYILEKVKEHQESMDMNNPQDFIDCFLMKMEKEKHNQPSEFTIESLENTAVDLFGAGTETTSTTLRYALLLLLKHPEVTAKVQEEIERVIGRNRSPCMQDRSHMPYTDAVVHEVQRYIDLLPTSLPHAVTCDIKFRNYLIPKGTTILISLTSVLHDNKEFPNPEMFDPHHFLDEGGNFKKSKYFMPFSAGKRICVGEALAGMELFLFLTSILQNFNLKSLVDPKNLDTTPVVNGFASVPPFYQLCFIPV

Compound: OC[C@H]1CC[C@H](c2ccc(O)cc2)CC1
- Activity [1]: inactive
- inhibition (INH) (Cytochrome P450 2D6): Not Active
- Time (Mus musculus [2]): 1.19 s
- Time (Mus musculus [3]): 10.3 s
- Time (Mus musculus [4]): 3.4 s
- Time (Mus musculus [5]): 0.88 s
- Time (Mus musculus [6]): 3.93 s
- Time (Mus musculus [7]): 2.78 s
- Time (Mus musculus [8]): 1.65 s
- Time (Mus musculus [9]): 5.3 s
- IC50 (Estrogen receptor [10]): 2.94 µM
- EC50 (Estrogen receptor [11]): 20.4 µM
- EC50 (Estrogen receptor [12]): > 10 µM
- EC50 (Cytochrome P450 2C9): 34 µM
- EC50 (Cytochrome P450 3A4): 89 µM
- EC50 (Estrogen receptor [13]): 0.93 µM
